Source: patent US9486506B2 (Novo Nordisk A/S, priority 2011, dated 2016)
Numbered stars: 1 amine (or outer) side, 2 acyl side, 3 side chain; on linkers, the order of the positions; unused ones are H or OH. Side chains are listed from the residue outwards. Peptide text beside a SMILES is read from it. * marks the point of attachment. C18 diacid = O=C(O)CCCCCCCCCCCCCCCCC(=O)*; γGlu = O=C(O)[C@H](CCC(=O)[*:2])N[*:1]; AEEA = NCCOCCOCC(=O)O

Molecular target: T1, glucagon receptor (Homo sapiens, UniProt P47871)
T1 construct: expressed in transfected cells
T1 sequence (P47871 26-477): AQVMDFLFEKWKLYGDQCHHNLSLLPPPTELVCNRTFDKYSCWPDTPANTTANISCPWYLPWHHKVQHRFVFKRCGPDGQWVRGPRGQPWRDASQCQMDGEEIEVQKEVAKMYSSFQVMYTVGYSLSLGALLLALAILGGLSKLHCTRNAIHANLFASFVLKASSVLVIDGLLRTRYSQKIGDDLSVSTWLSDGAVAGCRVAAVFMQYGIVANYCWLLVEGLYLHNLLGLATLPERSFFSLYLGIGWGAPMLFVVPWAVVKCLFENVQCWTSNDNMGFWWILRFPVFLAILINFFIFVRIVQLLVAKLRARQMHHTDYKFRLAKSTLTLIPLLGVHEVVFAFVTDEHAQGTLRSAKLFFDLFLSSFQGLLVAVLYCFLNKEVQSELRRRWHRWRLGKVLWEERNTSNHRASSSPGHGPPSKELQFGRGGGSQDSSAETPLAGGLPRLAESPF
Assay: Assay (I) Glucagon activity (cAMP biosensor, FLIPR)
Type: cell-based
Method: The cells (14000 per well) were incubated (37° C., 5% CO2) overnight in 384-well plates. Next day the cells were loaded with a calcium responsive dye that only distributed into the cytoplasm. Probenecid, an inhibitor of the organic anion transporter, was added to prevent the dye from leaving the cell. A PDE inhibitor was added to prevent formatted cAMP from being degraded. The plates were placed into a […] and the glucagon analogues were added. End point data were collected after 6 minutes. An increase in intracellular cAMP was proportional to an increased in calcium concentrations in the cytoplasm. When calcium was bound the dry a fluorescence signal was generated. EC50-values were calculated in Prism5.

Row | Compound | EC50
1 | CC(C)C[C@H](NC(=O)[C@H](Cc1ccc(O)cc1)NC(=O)[C@H](CCCCN)NC(=O)[C@H](CO)NC(=O)[C@H](Cc1ccc(O)cc1)NC(=O)[C@H](CC(=O)O)NC(=O)[C@H](CO)NC(=O)[C@@H](NC(=O)[C@H](Cc1ccccc1)NC(=O)[C@@H](NC(=O)CNC(=O)[C@H](Cc1c[nH]cn1)NC(=O)[C@H](CO)NC(=O)[C@@H](N)Cc1c[nH]cn1)[C@@H](C)O)[C@@H](C)O)C(=O)N[C@@H](CC(=O)O)C(=O)N[C@@H](CO)C(=O)N[C@@H](CCCNC(=N)N)C(=O)N[C@@H](CCCNC(=N)N)C(=O)N[C@@H](C)C(=O)N[C@@H](CCC(N)=O)C(=O)N[C@@H](CC(=O)O)C(=O)N[C@@H](Cc1ccccc1)C(=O)N[C@H](C(=O)N[C@@H](CCCCNC(=O)CC[C@H](NC(=O)CC[C@H](NC(=O)COCCOCCNC(=O)COCCOCCNC(=O)CC[C@H](NC(=O)CCCCCCCCCCCCCCCCC(=O)O)C(=O)O)C(=O)O)C(=O)O)C(=O)N[C@@H](Cc1c[nH]c2ccccc12)C(=O)N[C@@H](CC(C)C)C(=O)N[C@@H](CC(C)C)C(=O)N[C@@H](CO)C(=O)N[C@H](C(=O)O)[C@@H](C)O)C(C)C [Example 2, N^ε24-[(4S)-4-carboxy-4-[[(4S)-4-carboxy-4-[[2-[2-[2-[[2-[2-[2-[[(4S)-4-carboxy-4-(17-carboxyheptadecanoylamino)butanoyl]amino]ethoxy]ethoxy]acetyl]amino]ethoxy]ethoxy]acetyl]amino]butanoyl]amino]butanoyl]-[His^3,Lys^24,Leu^27,Ser^28]-Glucagon] | 129 pM
2 | CC(C)C[C@H](NC(=O)[C@H](Cc1ccc(O)cc1)NC(=O)[C@H](CCCCN)NC(=O)[C@H](CO)NC(=O)[C@H](Cc1ccc(O)cc1)NC(=O)[C@H](CC(=O)O)NC(=O)[C@H](CO)NC(=O)[C@@H](NC(=O)[C@H](Cc1ccccc1)NC(=O)[C@@H](NC(=O)CNC(=O)[C@H](Cc1c[nH]cn1)NC(=O)[C@H](CO)NC(=O)[C@@H](N)Cc1c[nH]cn1)[C@@H](C)O)[C@@H](C)O)C(=O)N[C@@H](CC(=O)O)C(=O)N[C@@H](CO)C(=O)N[C@@H](CCCNC(=N)N)C(=O)N[C@@H](CCCNC(=N)N)C(=O)N[C@@H](C)C(=O)N[C@@H](CCCCN)C(=O)N[C@@H](CC(=O)O)C(=O)N[C@@H](Cc1ccccc1)C(=O)N[C@H](C(=O)N[C@@H](CCCCNC(=O)CC[C@H](NC(=O)CC[C@H](NC(=O)COCCOCCNC(=O)COCCOCCNC(=O)CC[C@H](NC(=O)CCCCCCCCCCCCCCCCC(=O)O)C(=O)O)C(=O)O)C(=O)O)C(=O)N[C@@H](Cc1c[nH]c2ccccc12)C(=O)N[C@@H](CC(C)C)C(=O)N[C@@H](CC(C)C)C(=O)N[C@@H](CO)C(=O)N[C@H](C(=O)O)[C@@H](C)O)C(C)C [Example 3, N^ε24-[(4S)-4-carboxy-4-[[(4S)-4-carboxy-4-[[2-[2-[2-[[2-[2-[2-[[(4S)-4-carboxy-4-(17-carboxyheptadecanoylamino)butanoyl]amino]ethoxy]ethoxy]acetyl]amino]ethoxy]ethoxy]acetyl]amino]butanoyl]amino]butanoyl]-[His^3,Lys^20,Lys^24,Leu^27,Ser^28]-Glucagon] (H-HSHGTFTSDYSKYLDSRRAKDFVK([γGlu-γGlu-AEEA-AEEA-γGlu-C18 diacid])WLLST-OH) | 249 pM
3 | CC(C)C[C@H](NC(=O)[C@H](Cc1ccc(O)cc1)NC(=O)[C@H](CCCCN)NC(=O)[C@H](CO)NC(=O)[C@H](Cc1ccc(O)cc1)NC(=O)[C@H](CC(=O)O)NC(=O)[C@H](CO)NC(=O)[C@@H](NC(=O)[C@H](Cc1ccccc1)NC(=O)[C@@H](NC(=O)CNC(=O)[C@H](Cc1c[nH]cn1)NC(=O)[C@H](CO)NC(=O)[C@@H](N)Cc1c[nH]cn1)[C@@H](C)O)[C@@H](C)O)C(=O)N[C@@H](CC(=O)O)C(=O)N[C@@H](CO)C(=O)N[C@@H](CCCNC(=N)N)C(=O)N[C@@H](CCCNC(=N)N)C(=O)N[C@@H](C)C(=O)N[C@@H](CCC(N)=O)C(=O)N[C@@H](CC(=O)O)C(=O)N[C@@H](Cc1ccccc1)C(=O)N[C@H](C(=O)N[C@@H](CCCCNC(=O)CC[C@H](NC(=O)CC[C@H](NC(=O)COCCOCCNC(=O)COCCOCCNC(=O)CC[C@H](NC(=O)CCCCCCCCCCCCCCCCC(=O)O)C(=O)O)C(=O)O)C(=O)O)C(=O)N[C@@H](Cc1c[nH]c2ccccc12)C(=O)N[C@@H](CC(C)C)C(=O)N[C@@H](CC(C)C)C(=O)N[C@@H](CC(N)=O)C(=O)N[C@H](C(=O)O)[C@@H](C)O)C(C)C [Example 5, N^ε24-[(4S)-4-carboxy-4-[[(4S)-4-carboxy-4-[[2-[2-[2-[[2-[2-[2-[[(4S)-4-carboxy-4-(17-carboxyheptadecanoylamino)butanoyl]amino]ethoxy]ethoxy]acetyl]amino]ethoxy]ethoxy]acetyl]amino]butanoyl]amino]butanoyl]-[His^3,Lys^24,Leu^27]-Glucagon] | 105 pM
4 | CC(C)C[C@H](NC(=O)[C@H](Cc1ccc(O)cc1)NC(=O)[C@H](CCCCN)NC(=O)[C@H](CO)NC(=O)[C@H](Cc1ccc(O)cc1)NC(=O)[C@H](CC(=O)O)NC(=O)[C@H](CO)NC(=O)[C@@H](NC(=O)[C@H](Cc1ccccc1)NC(=O)[C@@H](NC(=O)CNC(=O)[C@H](Cc1c[nH]cn1)NC(=O)[C@H](CO)NC(=O)[C@@H](N)Cc1c[nH]cn1)[C@@H](C)O)[C@@H](C)O)C(=O)N[C@@H](CC(=O)O)C(=O)N[C@@H](CO)C(=O)N[C@@H](CCCCN)C(=O)N[C@@H](CCCNC(=N)N)C(=O)N[C@@H](C)C(=O)N[C@@H](CCC(N)=O)C(=O)N[C@@H](CCC(=O)O)C(=O)N[C@@H](Cc1ccccc1)C(=O)N[C@H](C(=O)N[C@@H](CCCCNC(=O)CC[C@H](NC(=O)CC[C@H](NC(=O)COCCOCCNC(=O)CC[C@H](NC(=O)CCCCCCCCCCCCCCCCC(=O)O)C(=O)O)C(=O)O)C(=O)O)C(=O)N[C@@H](Cc1c[nH]c2ccccc12)C(=O)N[C@@H](CC(C)C)C(=O)N[C@@H](CC(C)C)C(=O)N[C@@H](CO)C(=O)N[C@H](C(=O)O)[C@@H](C)O)C(C)C [Example 6, N^ε24-[(4S)-4-carboxy-4-[[(4S)-4-carboxy-4-[[2-[2-[2-[[(4S)-4-carboxy-4-(17-carboxyheptadecanoylamino)butanoyl]amino]ethoxy]ethoxy]acetyl]amino]butanoyl]amino]butanoyl]-[His^3,Lys^17,Glu^21,Lys^24,Leu^27,Ser^28]-Glucagon] (H-HSHGTFTSDYSKYLDSKRAQEFVK([γGlu-γGlu-AEEA-γGlu-C18 diacid])WLLST-OH) | 77 pM
5 | CC(C)C[C@H](NC(=O)[C@H](Cc1c[nH]c2ccccc12)NC(=O)[C@H](CCCCNC(=O)CC[C@H](NC(=O)CC[C@H](NC(=O)COCCOCCNC(=O)COCCOCCNC(=O)CC[C@H](NC(=O)CCCCCCCCCCCCCCCCC(=O)O)C(=O)O)C(=O)O)C(=O)O)NC(=O)[C@@H](NC(=O)[C@H](Cc1ccccc1)NC(=O)[C@H](CC(=O)O)NC(=O)[C@H](CCC(N)=O)NC(=O)[C@H](C)NC(=O)[C@H](CCCNC(=N)N)NC(=O)[C@H](CCCNC(=N)N)NC(=O)[C@@H](NC(=O)[C@H](CC(=O)O)NC(=O)[C@H](CC(C)C)NC(=O)[C@H](Cc1ccc(O)cc1)NC(=O)[C@H](CCCCN)NC(=O)[C@H](CO)NC(=O)[C@H](Cc1ccc(O)cc1)NC(=O)[C@H](CC(=O)O)NC(=O)[C@H](CO)NC(=O)[C@@H](NC(=O)[C@H](Cc1ccccc1)NC(=O)[C@@H](NC(=O)CNC(=O)[C@H](CCC(N)=O)NC(=O)[C@H](CO)NC(=O)[C@@H](N)Cc1c[nH]cn1)[C@@H](C)O)[C@@H](C)O)C(C)C)C(C)C)C(=O)N[C@@H](CC(C)C)C(=O)N[C@@H](CC(N)=O)C(=O)N[C@H](C(=O)O)[C@@H](C)O [Example 7, N^ε24-[(4S)-4-carboxy-4-[[(4S)-4-carboxy-4-[[2-[2-[2-[[2-[2-[2-[[(4S)-4-carboxy-4-(17-carboxyheptadecanoylamino)butanoyl]amino]ethoxy]ethoxy]acetyl]amino]ethoxy]ethoxy]acetyl]amino]butanoyl]amino]butanoyl]-[Val^16,Lys^24,Leu^27]-Glucagon] | 81 pM
6 | CC[C@H](C)[C@H](NC(=O)[C@H](CC(=O)O)NC(=O)[C@H](CC(C)C)NC(=O)[C@H](Cc1ccc(O)cc1)NC(=O)[C@H](CCCCN)NC(=O)[C@H](CO)NC(=O)[C@H](Cc1ccc(O)cc1)NC(=O)[C@H](CC(=O)O)NC(=O)[C@H](CO)NC(=O)[C@@H](NC(=O)[C@H](Cc1ccccc1)NC(=O)[C@@H](NC(=O)CNC(=O)[C@H](CCC(N)=O)NC(=O)[C@H](CO)NC(=O)[C@@H](N)Cc1c[nH]cn1)[C@@H](C)O)[C@@H](C)O)C(=O)N[C@@H](CCCNC(=N)N)C(=O)N[C@@H](CCCNC(=N)N)C(=O)N[C@@H](C)C(=O)N[C@@H](CCC(N)=O)C(=O)N[C@@H](CC(=O)O)C(=O)N[C@@H](Cc1ccccc1)C(=O)N[C@H](C(=O)N[C@@H](CCCCNC(=O)CC[C@H](NC(=O)CC[C@H](NC(=O)COCCOCCNC(=O)COCCOCCNC(=O)CC[C@H](NC(=O)CCCCCCCCCCCCCCCCC(=O)O)C(=O)O)C(=O)O)C(=O)O)C(=O)N[C@@H](Cc1c[nH]c2ccccc12)C(=O)N[C@@H](CC(C)C)C(=O)N[C@@H](CC(C)C)C(=O)N[C@@H](CC(N)=O)C(=O)N[C@H](C(=O)O)[C@@H](C)O)C(C)C [Example 8, N^ε24-[(4S)-4-carboxy-4-[[(4S)-4-carboxy-4-[[2-[2-[2-[[2-[2-[2-[[(4S)-4-carboxy-4-(17-carboxyheptadecanoylamino)butanoyl]amino]ethoxy]ethoxy]acetyl]amino]ethoxy]ethoxy]acetyl]amino]butanoyl]amino]butanoyl]-[Ile^16,Lys^24,Leu^27]-Glucagon] | 81 pM
